In US11466016B2, “Pharmaceutical compounds” (priority 2018, dated 2022):
Structures can show the parent of a compound that is named as a salt.

target: SHP2 (Homo sapiens (Human), UniProt Q06124); test: SHP2 Biochemical Assay (DiFMUP conversion, pIRS1 activating peptide); settings: not given
Sequence (Q06124 whole entry): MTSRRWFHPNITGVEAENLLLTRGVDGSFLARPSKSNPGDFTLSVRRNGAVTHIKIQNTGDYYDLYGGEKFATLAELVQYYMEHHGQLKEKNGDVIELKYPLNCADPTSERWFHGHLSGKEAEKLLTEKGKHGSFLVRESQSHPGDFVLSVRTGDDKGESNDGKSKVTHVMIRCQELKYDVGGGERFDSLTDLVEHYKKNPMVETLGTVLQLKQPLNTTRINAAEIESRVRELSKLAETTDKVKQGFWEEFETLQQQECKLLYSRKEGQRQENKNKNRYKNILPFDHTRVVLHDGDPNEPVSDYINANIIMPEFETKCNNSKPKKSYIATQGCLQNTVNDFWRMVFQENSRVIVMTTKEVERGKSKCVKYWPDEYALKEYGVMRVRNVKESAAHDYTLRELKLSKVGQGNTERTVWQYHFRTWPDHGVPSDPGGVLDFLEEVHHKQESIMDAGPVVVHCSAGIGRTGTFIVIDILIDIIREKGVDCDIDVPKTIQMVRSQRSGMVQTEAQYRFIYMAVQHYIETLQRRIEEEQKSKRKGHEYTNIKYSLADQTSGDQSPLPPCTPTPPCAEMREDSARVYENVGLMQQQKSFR

| Compound | IC50 [nM] |
| --- | --- |
| Cn1cnc2ccc(-c3c[nH]c4nc(N5[C@@H]6CC[C@H]5[C@@H](F)[C@@H](N)C6)cnc34)c(Cl)c2c1=O [Example 77, 6-{3-[(1S,2S,3S,5R)-3-amino-2-fluoro-8-azabicyclo[3.2.1]octan-8-yl]-5H-pyrrolo[2,3-b]pyrazin-7-yl}-5-chloro-3-methyl-3,4-dihydroquinazolin-4-one] | 18 |
| Cn1cc2c(Cl)c(-c3n[nH]c4nc(N5[C@@H]6CC[C@H]5[C@@H](F)[C@@H](N)C6)c(CO)nc34)ccc2n1 [Example 81, {6-[(1S,2S,3S,5R)-3-amino-2-fluoro-8-azabicyclo[3.2.1]octan-8-yl]-3-(4-chloro-2-methyl-2H-indazol-5-yl)-1H-pyrazolo[3,4-b]pyrazin-5-yl}methanol] | 15 |

same assay, conditions: DiFMUP substrate, 0.25 μM pIRS1 peptide, 30 min pre-incubation; average where more than one data point; read-out: SHP2 (IC50)

| Compound | IC50 [nM] |
| --- | --- |
| Cc1nc2c(-c3ccc4nn(C)cc4c3Cl)n[nH]c2nc1N1CC[C@H](N)[C@H](F)C1 [Example 75, (3R,4S)-1-[3-(4-chloro-2-methyl-2H-indazol-5-yl)-5-methyl-1H-pyrazolo[3,4-b]pyrazin-6-yl]-3-fluoropiperidin-4-amine, hydrochloride] | 130 |
| Cn1c(=O)sc2ccc(-c3c[nH]c4nc(N5CC[C@H](N)[C@H](F)C5)cnc34)c(Cl)c21 [Example 76, 5-{3-[(3R,4S)-4-amino-3-fluoropiperidin-1-yl]-5H-pyrrolo[2,3-b]pyrazin-7-yl}-4-chloro-3-methyl-2,3-dihydro-1,3-benzothiazol-2-one, hydrochloride] | 440 |
| Cn1cc2c(Cl)c(-c3n[nH]c4nc(N5[C@H]6CC[C@@H]5[C@@H](F)[C@@H](N)C6)c(CO)nc34)ccc2n1 [Example 79, {6-[(1R,2S,3S,5S)-3-amino-2-fluoro-8-azabicyclo[3.2.1]octan-8-yl]-3-(4-chloro-2-methyl-2H-indazol-5-yl)-1H-pyrazolo[3,4-b]pyrazin-5-yl}methanol] | 9.1 |
| Cn1nc2ccc(-c3n[nH]c4nc(N5[C@H]6CC[C@@H]5[C@@H](F)[C@@H](N)C6)c(CO)nc34)c(Cl)c2c1Cl [Example 80, {6-[(1R,2S,3S,5S)-3-amino-2-fluoro-8-azabicyclo[3.2.1]octan-8-yl]-3-(3,4-dichloro-2-methyl-2H-indazol-5-yl)-1H-pyrazolo[3,4-b]pyrazin-5-yl}methanol] | 5.2 |
| CCn1cc2c(Cl)c(-c3n[nH]c4nc(N5[C@H]6CC[C@@H]5[C@@H](F)[C@@H](N)C6)c(CO)nc34)ccc2n1 [Example 82, {6-[(1R,2S,3S,5S)-3-amino-2-fluoro-8-azabicyclo[3.2.1]octan-8-yl]-3-(4-chloro-2-ethyl-2H-indazol-5-yl)-1H-pyrazolo[3,4-b]pyrazin-5-yl}methanol] | 12 |
| Cn1nc2ccc(-c3n[nH]c4nc(N5[C@H]6CC[C@@H]5[C@@H](F)[C@@H](N)C6)c(CO)nc34)c(F)c2c1Cl [Example 83, {6-[(1R,2S,3S,5S)-3-amino-2-fluoro-8-azabicyclo[3.2.1]octan-8-yl]-3-(3-chloro-4-fluoro-2-methyl-2H-indazol-5-yl)-1H-pyrazolo[3,4-b]pyrazin-5-yl}methanol] | 8.6 |
| COc1cnc2ccc(-c3n[nH]c4nc(N5[C@H]6CC[C@@H]5[C@@H](F)[C@@H](N)C6)c(CO)nc34)c(Cl)c2n1 [Example 84, {6-[(1R,2S,3S,5S)-3-amino-2-fluoro-8-azabicyclo[3.2.1]octan-8-yl]-3-(5-chloro-3-methoxyquinoxalin-6-yl)-1H-pyrazolo[3,4-b]pyrazin-5-yl}methanol] | 7.4 |
| Cn1nc2ccc(-c3n[nH]c4nc(N5[C@@H]6CC[C@H]5[C@@H](F)[C@@H](N)C6)c(CO)nc34)c(Cl)c2c1Cl [Example 85, {6-[(1S,2S,3S,5R)-3-amino-2-fluoro-8-azabicyclo[3.2.1]octan-8-yl]-3-(3,4-dichloro-2-methyl-2H-indazol-5-yl)-1H-pyrazolo[3,4-b]pyrazin-5-yl}methanol] | 7.5 |
| Cn1nc2ccc(-c3n[nH]c4nc(N5[C@@H]6CC[C@H]5CNC6)c(CO)nc34)c(Cl)c2c1Cl [Example 86, {6-[3,8-diazabicyclo[3.2.1]octan-8-yl]-3-(3,4-dichloro-2-methyl-2H-indazol-5-yl)-1H-pyrazolo[3,4-b]pyrazin-5-yl}methanol] | 7.2 |
